Marks after values point to notes of the source that are not given here.
Columns and labels:
[1] = test system: NCI-H322 (non-small cell lung carcinoma); test: NCI H322 subcutaneous human xenograft mouse model, tumor growth; assay type: in vivo, SCID mice; conditions: for tumor growth inhibition: monotherapy, FIG. 2, range over doses
Protocol: NCI H322 cells obtained from the ATCC and were cultured in RPMI 1640+10% Fetal bovine serum, Sodium pyruvate and L-Glutamine at […] in a 95/5% air/CO2 atmosphere. Cells were harvested following trypsin digestion and brought to a density of 2×10^6 cells/200 μl in PBS. Tumors were initiated by injection of the cell suspension subcutaneously in the axillary region. In addition some experiments were performed following serial transplantation of tumor fragments in SCID mice. Tumors were initiated by injection of tumor fragments subcutaneously in the axillary region.
(§1) For the xenograft models used here, solid tumors were measured by electronic caliper measurement through the skin. Measurements were typically made twice weekly.
Drugs were administered by P.O. route. […] These studies were performed under IACUC #468 and 603.
Data are presented as percent inhibition of tumor growth, as compared to vehicle.

[2] = test system: BT474 (human breast tumor line); test: BT474 subcutaneous human xenograft mouse model, tumor growth; assay type: in vivo, SCID mice; conditions: for tumor growth inhibition: monotherapy, FIG. 1, range over doses
Protocol: The BT474 xenografts were maintained by serial transplantation of tumor fragments in SCID mice. Tumors are initiated by injection of tumor fragments subcutaneously in the axillary region.
as §1
Drugs were administered by P.O. route. […] These studies were performed under IACUC #468 and 603. The results are illustrated in Tables 1-4, and FIGS. 1 and 2. FIGS. 1 and 2 are the graphical representation of the data contained in Tables 3 and 4, respectively.
The column labeled “Exp. 1” contains the results presented in FIG. 1 for the last data point on the graph. The column labeled “Exp. 2” contains analogous results from an independent experiment. Data are presented as percent inhibition of tumor growth, as compared to vehicle.

[3] = Exp. 1, Example 1 30 mg/kg P.O. once daily
[4] = Exp. 1, Example 1 100 mg/kg P.O. once daily
[5] = Exp. 2, Example 1 30 mg/kg P.O. once daily
[6] = Exp. 2, Example 1 100 mg/kg P.O. once daily
[7] = Exp. 1, Example 3 60 mg/kg P.O. once daily

Work on `Cc1ccc(Nc2nccc(N(C)c3ccc4c(C)n(C)nc4c3)n2)cc1S(N)(=O)=O` [Example 1, 5-({4-[(2,3-dimethyl-2H-indazol-6-yl)(methyl)amino]pyrimidin-2-yl}amino)-2-methylbenzenesulfonamide] yielded a Mean tumor volume ([1]; Day 29, Ex. 1 30 mg/kg) of 182 mm^3, a Mean tumor volume ([1]; Day 29, Ex. 1 100 mg/kg) of 166 mm^3 and a Mean tumor volume ([1]; Day 34, Ex. 1 30 mg/kg) of 351 mm^3. For the same compound, the Mean tumor volume ([1]; Day 34, Ex. 1 100 mg/kg) was 268 mm^3, the Mean tumor volume ([1]; Day 37, Ex. 1 30 mg/kg) was 358 mm^3 and the Mean tumor volume ([1]; Day 37, Ex. 1 100 mg/kg) was 266 mm^3. It also gave a Mean tumor volume ([1]; Day 41, Ex. 1 30 mg/kg) of 329 mm^3, a Mean tumor volume ([1]; Day 41, Ex. 1 100 mg/kg) of 316 mm^3 and a Mean tumor volume ([1]; Day 44, Ex. 1 30 mg/kg) of 309 mm^3. It also gave a Mean tumor volume ([1]; Day 44, Ex. 1 100 mg/kg) of 312 mm^3, a Mean tumor volume ([1]; Day 48, Ex. 1 30 mg/kg) of 377 mm^3 and a Mean tumor volume ([1]; Day 48, Ex. 1 100 mg/kg) of 297 mm^3. The Mean tumor volume ([1]; Day 51, Ex. 1 30 mg/kg) was 389 mm^3, the Mean tumor volume ([1]; Day 51, Ex. 1 100 mg/kg) was 313 mm^3 and the “percent inhibition of tumor growth, as compared to vehicle” value (“percent inhibition of tumor growth” for short) [1, 3] was 34%. For the same compound, the “percent inhibition of tumor growth” value [1, 4] was 56* %, the “percent inhibition of tumor growth” value [1, 5] was 20% and the “percent inhibition of tumor growth” value [1, 6] was 62%. The “percent inhibition of tumor growth” value ([1]; Exp. 3, Example 1 30 mg/kg P.O. once daily) was 86* %, the “percent inhibition of tumor growth” value ([1]; Exp. 3, Example 1 100 mg/kg P.O. once daily) was 88* % and the tumor growth inhibition [1] was 86-88%. For the same compound, the Mean tumor volume ([2]; Day 36, Ex. 1 30 mg/kg) was 281 mm^3, the Mean tumor volume ([2]; Day 36, Ex. 1 100 mg/kg) was 293 mm^3 and the Mean tumor volume ([2]; Day 38, Ex. 1 30 mg/kg) was 406 mm^3. The Mean tumor volume ([2]; Day 38, Ex. 1 100 mg/kg) was 417 mm^3, the Mean tumor volume ([2]; Day 41, Ex. 1 30 mg/kg) was 481 mm^3 and the Mean tumor volume ([2]; Day 41, Ex. 1 100 mg/kg) was 453 mm^3. It also gave a Mean tumor volume ([2]; Day 44, Ex. 1 30 mg/kg) of 601 mm^3, a Mean tumor volume ([2]; Day 44, Ex. 1 100 mg/kg) of 519 mm^3 and a Mean tumor volume ([2]; Day 49, Ex. 1 30 mg/kg) of 722 mm^3. It also gave a Mean tumor volume ([2]; Day 49, Ex. 1 100 mg/kg) of 519 mm^3, a Mean tumor volume ([2]; Day 52, Ex. 1 30 mg/kg) of 777 mm^3 and a Mean tumor volume ([2]; Day 52, Ex. 1 100 mg/kg) of 515 mm^3. It also gave a Mean tumor volume ([2]; Day 55, Ex. 1 30 mg/kg) of 860 mm^3, a Mean tumor volume ([2]; Day 55, Ex. 1 100 mg/kg) of 496 mm^3 and a Mean tumor volume ([2]; Day 57, Ex. 1 30 mg/kg) of 954 mm^3. For the same compound, the Mean tumor volume ([2]; Day 57, Ex. 1 100 mg/kg) was 513 mm^3, the “percent inhibition of tumor growth” value [2, 3] was 16% and the “percent inhibition of tumor growth” value [2, 4] was 78* %. For the same compound, the “percent inhibition of tumor growth” value [2, 5] was 47* %, the “percent inhibition of tumor growth” value [2, 6] was 64* % and the tumor growth inhibition [2] was 16-78%.
For `CS(=O)(=O)CCNCc1ccc(-c2ccc3ncnc(Nc4ccc(OCc5cccc(F)c5)c(Cl)c4)c3c2)o1` [Example 3, N-{3-Chloro-4-[(3-fluorobenzyl)oxy]phenyl}-6-[5-({[2-(methanesulphonyl)ethyl]amino}methyl)-2-furyl]-4-quinazolinamine], the Mean tumor volume ([1]; Day 29, Ex. 3 20 mg/kg) was 167 mm^3, the Mean tumor volume ([1]; Day 29, Ex. 3 60 mg/kg) was 175 mm^3 and the Mean tumor volume ([1]; Day 34, Ex. 3 20 mg/kg) was 288 mm^3. For the same compound, the Mean tumor volume ([1]; Day 34, Ex. 3 60 mg/kg) was 252 mm^3, the Mean tumor volume ([1]; Day 37, Ex. 3 20 mg/kg) was 403 mm^3 and the Mean tumor volume ([1]; Day 37, Ex. 3 60 mg/kg) was 313 mm^3. The Mean tumor volume ([1]; Day 41, Ex. 3 20 mg/kg) was 511 mm^3, the Mean tumor volume ([1]; Day 41, Ex. 3 60 mg/kg) was 400 mm^3 and the Mean tumor volume ([1]; Day 44, Ex. 3 20 mg/kg) was 616 mm^3. It also gave a Mean tumor volume ([1]; Day 48, Ex. 3 20 mg/kg) of 837 mm^3, a Mean tumor volume ([1]; Day 48, Ex. 3 60 mg/kg) of 577 mm^3 and a Mean tumor volume ([1]; Day 51, Ex. 3 20 mg/kg) of 871 mm^3. The Mean tumor volume ([1]; Day 51, Ex. 3 60 mg/kg) was 649 mm^3, the “percent inhibition of tumor growth” value [1, 7] was 75* % and the “percent inhibition of tumor growth” value ([1]; Exp. 2, Example 3 20 mg/kg P.O. once daily) was 31%. The “percent inhibition of tumor growth” value ([1]; Exp. 3, Example 3 20 mg/kg P.O. once daily) was 28%, the “percent inhibition of tumor growth” value ([1]; Exp. 3, Example 3 60 mg/kg P.O. once daily) was 54% and the tumor growth inhibition [1] was 28-54%. The Mean tumor volume ([2]; Day 36, Ex. 3 60 mg/kg) was 235 mm^3, the Mean tumor volume ([2]; Day 36, Ex. 3 200 mg/kg) was 219 mm^3 and the Mean tumor volume ([2]; Day 38, Ex. 3 60 mg/kg) was 328 mm^3. The Mean tumor volume ([2]; Day 38, Ex. 3 200 mg/kg) was 262 mm^3, the Mean tumor volume ([2]; Day 41, Ex. 3 60 mg/kg) was 367 mm^3 and the Mean tumor volume ([2]; Day 41, Ex. 3 200 mg/kg) was 184 mm^3. The Mean tumor volume ([2]; Day 44, Ex. 3 60 mg/kg) was 485 mm^3, the Mean tumor volume ([2]; Day 44, Ex. 3 200 mg/kg) was 242 mm^3 and the Mean tumor volume ([2]; Day 49, Ex. 3 60 mg/kg) was 554 mm^3. The Mean tumor volume ([2]; Day 49, Ex. 3 200 mg/kg) was 288 mm^3, the Mean tumor volume ([2]; Day 52, Ex. 3 60 mg/kg) was 633 mm^3 and the Mean tumor volume ([2]; Day 52, Ex. 3 200 mg/kg) was 270 mm^3. The Mean tumor volume ([2]; Day 55, Ex. 3 60 mg/kg) was 763 mm^3, the Mean tumor volume ([2]; Day 55, Ex. 3 200 mg/kg) was 219 mm^3 and the Mean tumor volume ([2]; Day 57, Ex. 3 60 mg/kg) was 878 mm^3. For the same compound, the Mean tumor volume ([2]; Day 57, Ex. 3 200 mg/kg) was 214 mm^3, the “percent inhibition of tumor growth” value [2, 7] was 21% and the “percent inhibition of tumor growth” value ([2]; Exp. 1, Example 3 200 mg/kg P.O. once daily) was 99* %. The “percent inhibition of tumor growth” value ([2]; Exp. 2, Example 3 60 mg/kg P.O. once daily) was 58* %, the “percent inhibition of tumor growth” value ([2]; Exp. 2, Example 3 200 mg/kg P.O. once daily) was 85* % and the tumor growth inhibition [2] was 21-99%.

From US20100010022A1, “CANCER TREATMENT METHOD” (SmithKline Beecham Corporation, priority 2004, published 2010)
